Reference: ChEMBL document CHEMBL2321706, “Structure-activity relationship of benzodiazepine derivatives as LXXLL peptide mimetics that inhibit the interaction of vitamin D receptor with coactivators” (Bioorg Med Chem, 2013)
Active and inactive are the calls of the source. No cut-off for these calls is given here.

Tests used:
Assay type in all cases: cell-based
[1] = biological target: T1, Vitamin D3 receptor (Homo sapiens) (UniProt P11473); assay: Inhibition of human recombinant GAL4N-fused VDR LBD expressed in HEK293 cells using 1,25(OH)2D3 as substrate assessed as inhibition of cofactor interaction at 30 uM after 16 to 18 hrs by luciferase reporter gene assay relative to control
T1 sequence (whole entry): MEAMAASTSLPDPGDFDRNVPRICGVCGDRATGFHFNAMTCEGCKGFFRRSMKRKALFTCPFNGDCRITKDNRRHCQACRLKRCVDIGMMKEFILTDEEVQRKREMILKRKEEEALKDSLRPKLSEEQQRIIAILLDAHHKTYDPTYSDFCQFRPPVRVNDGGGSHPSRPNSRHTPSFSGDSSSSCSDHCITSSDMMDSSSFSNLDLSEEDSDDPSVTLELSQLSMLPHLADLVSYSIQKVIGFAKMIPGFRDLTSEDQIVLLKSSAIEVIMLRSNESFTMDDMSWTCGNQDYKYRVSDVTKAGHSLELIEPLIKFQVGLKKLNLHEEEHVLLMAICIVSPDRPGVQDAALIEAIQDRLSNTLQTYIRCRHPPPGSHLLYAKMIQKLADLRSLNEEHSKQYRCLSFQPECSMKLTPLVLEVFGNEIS

Vitamin D3 receptor = biological target: T2, Vitamin D3 receptor (Homo sapiens, UniProt P11473); assay: Inhibition of human recombinant GAL4N-fused VDR LBD expressed in HEK293 cells using 1,25(OH)2D3 as substrate assessed as inhibition of cofactor interaction after 16 to 18 hrs by luciferase reporter gene assay
T2 sequence (P11473 whole entry): T1 sequence (whole entry)

HEK293 = assay: Cytotoxicity to human HEK293 cells at 30 uM after 16 to 18 hrs; conditions: hek293, 30 µM

Row | inhibition [1] | IC50 (Vitamin D3 receptor) | Structure (SMILES) | Activity (HEK293)
1 | 45% | > 30 µM | CC(C)CCN1Cc2cc(CC(C)C)ccc2N[C@@H](CC(C)C)C1=O | 
2 | inactive |  | CC(C)=Cc1ccc2c(c1)CN(CCC(C)C)C(=O)[C@H](CC(C)C)N2 | 
3 | 29% | > 30 µM | CC(C)CCN1Cc2ccccc2N[C@@H](CC(C)C)C1=O | 
4 | 7% | > 30 µM | CC(C)CCN1Cc2ccc(N)cc2N[C@@H](CC(C)C)C1=O | 
5 | 32% | > 30 µM | C=C(CC)c1ccc2c(c1)CN(CCC(C)C)C(=O)[C@H](CC(C)C)N2 | 
6 | 8% | > 30 µM | CC(C)CCN1Cc2cc(-c3ccc(C(=O)O)cc3)c(N)cc2N[C@@H](CC(C)C)C1=O | 
7 | inactive |  | CC/C=C/c1ccc2c(c1)CN(CCC(C)C)C(=O)[C@H](CC(C)C)N2 | 
8 | 27% | > 30 µM | CC(C)CCN1Cc2cc(/C=C/CO)ccc2N[C@@H](CC(C)C)C1=O | 
9 | 28% | > 30 µM | CC(C)CCN1Cc2cc(/C=C/CCO)ccc2N[C@@H](CC(C)C)C1=O | 
10 | 48% | > 30 µM | CC/C=C/c1cc2c(cc1N)N[C@@H](CC(C)C)C(=O)N(CCC(C)C)C2 | 
11 |  |  | CCC/C=C/c1cc2c(cc1N)N[C@@H](CC(C)C)C(=O)N(CCC(C)C)C2 | Toxic
12 |  | 25 µM | CCCCc1cc2c(cc1N)N[C@@H](CC(C)C)C(=O)N(CCC(C)C)C2 | 
13 | 30% | > 30 µM | CC(C)CCN1Cc2cc(I)ccc2N[C@@H](CC(C)C)C1=O | 
14 | 9% | > 30 µM | CC(C)CCN1Cc2cc(CCCO)ccc2N[C@@H](CC(C)C)C1=O | 
15 | 47% | > 30 µM | CCCCCc1cc2c(cc1N)N[C@@H](CC(C)C)C(=O)N(CCC(C)C)C2 | 
16 | inactive |  | CC(C)CCN1Cc2cc(CCCCO)ccc2N[C@@H](CC(C)C)C1=O | 
17 |  | 14 µM | CCOC(=O)c1ccc(-c2cc3c(cc2N)N[C@@H](CC(C)C)C(=O)N(CCC(C)C)C3)cc1 | 
18 |  | 26 µM | CC(C)=Cc1cc2c(cc1N)N[C@@H](CC(C)C)C(=O)N(CCC(C)C)C2 | 
19 |  | 24 µM | CC(C)CCN1Cc2cc(-c3ccccc3)c(N)cc2N[C@@H](CC(C)C)C1=O | 
20 |  | 20 µM | CCOC(=O)c1ccc(-c2cc3c(cc2N)N[C@@H](CC(C)C)C(=O)N(CCC(C)C)C3)c(OCCO)c1 | 

Row | Structure (SMILES) | inhibition [1] | IC50 (Vitamin D3 receptor) | Activity (HEK293)
21 | CC(C)CCN1Cc2cc(I)c(N)cc2N[C@@H](CC(C)C)C1=O |  | 30 µM | 
